Test results from BindingDB's records for doi:10.1021/ml200030q (2011).

experiment: Antagonist activity at mouse CCR2 assessed as inhibition of MCP1-induced chemotaxis after 30 mins

IC50	Structure (SMILES)
156 nM	Cc1ccc([C@]2(O)CC[C@H](N3CC[C@@H](NC(=O)CNC(=O)c4cccc(C(F)(F)F)c4)C3)CC2)cc1

experiment: Antagonist activity at CCR2 in human PBMC assessed as inhibition of MCP1-induced chemotaxis after 30 mins

Structure (SMILES)	IC50
O=C(CNC(=O)c1cccc(C(F)(F)F)c1)N[C@@H]1CCN([C@H]2CC[C@@](O)(c3ncccn3)CC2)C1	9.3 nM
O=C(CNC(=O)c1cccc(C(F)(F)F)c1)N[C@@H]1CCN([C@H]2CC[C@@](O)(c3cncnc3)CC2)C1	20 nM
O=C(CNC(=O)c1cccc(C(F)(F)F)c1)N[C@@H]1CCN([C@H]2CC[C@@](O)(c3cccnn3)CC2)C1	5.8 nM
O=C(CNC(=O)c1cccc(C(F)(F)F)c1)N[C@@H]1CCN([C@H]2CC[C@@](O)(c3ccnnc3)CC2)C1	7.2 nM

Further lines, results first:

IC50	Structure (SMILES)
5.6 nM	Cc1ccc([C@]2(O)CC[C@H](N3CC[C@@H](NC(=O)CNC(=O)c4cccc(C(F)(F)F)c4)C3)CC2)cn1
3.9 nM	O=C(CNC(=O)c1cccc(C(F)(F)F)c1)N[C@@H]1CCN([C@H]2CC[C@@](O)(c3cccnc3)CC2)C1
3 nM	O=C(CNC(=O)c1cccc(C(F)(F)F)c1)N[C@@H]1CCN([C@H]2CC[C@@](O)(c3ccncc3)CC2)C1
2.7 nM	CCOc1ccc([C@]2(O)CC[C@H](N3CC[C@@H](NC(=O)CNC(=O)c4cccc(C(F)(F)F)c4)C3)CC2)cn1
